The values below come from US9157088B2, “Transferases, epimerases, polynucleotides encoding these and uses thereof” (priority 2007, dated 2015).

Data set [1] concerns L-Galactose dehydrogenase. To be noted: cited from earlier work.
Data set [2] concerns the target kiwifruit GDP-L-Galactose Guanyltransferase EST 319998 (Actinidia chinensis, UniProt A0A2R6QD99). As to the kind of experiment: Continuous coupled assay of transferase activity with guanyl acceptors. To be noted: sugar phosphate as guanyl acceptor, epimerase generated substrate. The method, then:
Expression of genes in E. coli. The EST 319998 from young fruit of Actinidia chinensis and At4g26850 were each cloned into pET30A (Novagene, USA), their sequence checked and expressed in E. coli. The N terminal His6 tag was used to purify the protein. An empty vector control was expressed and purified in parallel. Techniques were essentially as described earlier (Laing et al., 2004).
L-Galactose dehydrogenase (Gen Bank accession AA018639 (EST 56121), 1.5 ug/assay) was cloned from an EST derived from an A. deliciosa (kiwifruit) shoot bud library with a maltose binding protein presequence and assayed as described previously (Laing et al., 2004). L-Galactose-1-Phosphate phosphatase was cloned from Arabidopsis thaliana (At3g02870, 3.1 ug/assay) and assayed as described (Laing et al., 2004). GDP-D-Mannose 3′,5′-Epimerase (198296) was cloned from dormant kiwifruit (A. deliciosa) buds three days after hydrogen cyanamide treatment and assayed as described (Wolucka et al., 2001). The former two enzymes are highly specific as to their substrates (Laing et al., 2004; Laing et al., 2004).
The assay for GDP-L-Galactose-1-Phosphate Guanyltransferase was run in 20 mM TrisCl, pH 8.0, GDP-L-Galactose, with 1 mM D-Mannose-1-Phosphate. […] In the latter case, 0.21 mg of epimerase was incubated with GDP-D-Mannose in 20 mM Tris Cl pH 8 in a total volume of 400 μL (see Wolucka et al., 2001) for 30 minutes at 20 C and then used directly in the assay at a 1 to 20 dilution. Assays were either terminated after 10 minutes by heating to 100 C for three minutes, or directly coupled to the phosphatase and L-Galactose dehydrogenase to measure product formation during the assay. Heat terminated assays were cooled on ice, centrifuged to remove precipitated protein and L-Galactose assayed using the coupling enzymes described above (see also (Laing et al., 2004)).
The applicants used two assays to characterise the enzyme, using two sources of the substrate GDP-L-Galactose. The first assay used the E. coli expressed coupling enzymes L-Galactose-1-Phosphate phosphatase and L-Galactose dehydrogenase. […] The applicants either measured the product formed by adding the coupling enzymes in the assay and measuring the time course of NADH formed, or by stopping the reaction after 10 minutes by boiling for 3 minutes and centrifuging. To this latter fixed time assay, the applicants then either adding coupling enzymes to measure L-Galactose production or using the LCMS to measure the products. The LCMS was used only to confirm the results of the coupled enzyme reaction and to measure the reverse reaction.

Data set [3] concerns the target T1, L-Galactose-1-Phosphate phosphatase (Arabidopsis thaliana, UniProt Q9M8S8).
T1 construct: made in house; host or cells: E. coli
T1 sequence (Q9M8S8 1-271): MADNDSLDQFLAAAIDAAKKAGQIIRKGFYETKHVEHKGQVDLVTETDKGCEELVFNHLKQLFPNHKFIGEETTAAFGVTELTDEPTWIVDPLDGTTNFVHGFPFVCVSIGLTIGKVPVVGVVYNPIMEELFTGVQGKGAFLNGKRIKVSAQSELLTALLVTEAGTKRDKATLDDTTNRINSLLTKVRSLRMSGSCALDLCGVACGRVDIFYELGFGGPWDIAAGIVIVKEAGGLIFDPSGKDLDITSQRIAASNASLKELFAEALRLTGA
To be noted: cited from earlier work.

Data set [4] can be described thus: Transferase activity of E. coli expressed enzymes (coupled reaction and LCMS). To be noted: enzyme expressed in E. coli, His tag purified. Format: biochemical. The method, then:
Expression of genes in E. coli. The EST 319998 from young fruit of Actinidia chinensis and At4g26850 were each cloned into pET30A (Novagene, USA), their sequence checked and expressed in E. coli. The N terminal His6 tag was used to purify the protein. An empty vector control was expressed and purified in parallel. Techniques were essentially as described earlier (Laing et al., 2004). In much of this work the His-protein was further purified on a 5 mL HiTrap Q FF column (GE Healthcare), and identical results were obtained with both preparations.
The assay for GDP-L-Galactose-1-Phosphate Guanyltransferase was run in 20 mM TrisCl, pH 8.0, GDP-L-Galactose, with 1 mM D-Mannose-1-Phosphate. GDP-L-Galactose was either used directly from the Glycoteam product (in which case high backgrounds were observed due to contaminating L-Galactose-1-Phosphate) or GDP-L-Galactose was generated using the epimerase. In the latter case, 0.21 mg of epimerase was incubated with GDP-D-Mannose in 20 mM Tris Cl pH 8 in a total volume of 400 μL (see Wolucka et al., 2001) for 30 minutes at 20 C and then used directly in the assay at a 1 to 20 dilution. Assays were either terminated after 10 minutes by heating to 100 C for three minutes, or directly coupled to the phosphatase and L-Galactose dehydrogenase to measure product formation during the assay. Heat terminated assays were cooled on ice, centrifuged to remove precipitated protein and L-Galactose assayed using the coupling enzymes described above (see also (Laing et al., 2004)). Assays for L-Galactose were linear with added L-Galactose-1-Phosphate over the range measured. Backgrounds were run using the empty vector control, which gave the same result as a boiled enzyme control. […]
The applicants used two assays to characterise the enzyme, using two sources of the substrate GDP-L-Galactose. […] The applicants either measured the product formed by adding the coupling enzymes in the assay and measuring the time course of NADH formed, or by stopping the reaction after 10 minutes by boiling for 3 minutes and centrifuging. […]

kiwifruit GDP-L-Galactose Guanyltransferase EST 319998, sequence (A0A2R6QD99 entry or part of it): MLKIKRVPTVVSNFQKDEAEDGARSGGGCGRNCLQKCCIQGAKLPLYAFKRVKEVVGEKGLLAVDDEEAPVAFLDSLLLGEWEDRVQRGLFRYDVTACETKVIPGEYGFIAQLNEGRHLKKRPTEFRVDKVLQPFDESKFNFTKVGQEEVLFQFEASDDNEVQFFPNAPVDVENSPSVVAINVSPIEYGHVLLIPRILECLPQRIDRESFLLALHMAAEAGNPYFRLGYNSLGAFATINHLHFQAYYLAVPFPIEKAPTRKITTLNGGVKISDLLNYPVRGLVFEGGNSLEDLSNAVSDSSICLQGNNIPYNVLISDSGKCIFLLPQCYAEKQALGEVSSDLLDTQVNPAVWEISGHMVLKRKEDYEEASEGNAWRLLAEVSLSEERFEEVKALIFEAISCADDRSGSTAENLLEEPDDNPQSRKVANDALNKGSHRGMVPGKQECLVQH

In the case of `O=C[C@H](O)[C@@H](O)[C@@H](O)[C@H](O)CO` [D-Galactose], in data set [1], the “reaction with L-Galactose dehydrogenase” value is reported as “not reacting”.
For `O=C[C@@H](O)[C@@H](O)[C@H](O)[C@H](O)CO` [D-Mannose], the “reaction with L-Galactose dehydrogenase” value in data set [1] is “not reacting”.
Take `O=P(O)(O)OC1[C@@H](O)[C@H](O)C(O)[C@H](O)[C@@H]1O` (stereo partly drawn) [L-Myoinositol-1-P]: the “% of D-mannose-1P” value in data set [2] was determined as 126%. Moreover, in data set [2] (N = 6), the Rate is 0.42 nmoles/sec/ug protein. Besides, the “dephosphorylation by L-Galactose-1-Phosphate phosphatase” value in data set [3] is “significantly dephosphorylating”.

B1: At4g26850: GDP-L-Galactose Guanyltransferase, VTC2 from Arabidopsis thaliana (protein, listed as Arabidopsis thaliana)
chain: MLKIKRVPTVVSNYQKDDGAEDPVGCGRNCLGACCLNGARLPLYACKNLVKSGEKLVISHEAIEPPVAFLESLVLGEWEDRFQRGLFRYDVTACETKVIPGKYGFVAQLNEGRHLKKRPTEFRVDKVLQSFDGSKFNFTKVGQEELLFQFEAGEDAQVQFFPCMPIDPENSPSVVAINVSPIEYGHVLLIPRVLDCLPQRIDHKSLLLAVHMAAEAANPYFRLGYNSLGAFATINHLHFQAYYLAMPFPLEKAPTKKITTTVSGVKISELLSYPVRSLLFEGGSSMQELSDTVSDCCVCLQNNNIPFNILISDCGRQIFLMPQCYAEKQALGEVSPEVLETQVNPAVWEISGHMVLKRKEDYEGASEDNAWRLLAEASLSEERFKEVTALAFEAIGCSNQEEDLEGTIVHQQNSSGNVNQKSNRTHGGPITNGTAAECLVLQ
As for B1, the results for the “GDP-L-Galactose Guanyltransferase activity of the expressed enzyme” value in data set [4] and in data set [4] (listed as At4g26) were “showed transferase activity” and “could catalyse the conversion of GDP-L-Galactose to L-Galactose-1-P”, respectively.
